Common to all, as to test: NCI tumour cell line growth inhibition, 48 h
Experiment [1] relates to Malme-3M.
The test system of experiment [2] is HCC 2998.
Experiment [3] has as its system COLO 205.
In experiment [4] the test system is SK-MEL-2.
Experiment [5] has as its system HCT-15.
For experiment [6], the system named is NCI-H522.
In experiment [7] the test system is NCI-H226.
Experiment [8] concerns CAKI-1.
The subject of experiment [9] is U-251.
For experiment [10], the system named is UACC-257.
In experiment [11] the test system is KM12.
The test system of experiment [12] is OVCAR-3.
Experiment [13] deals with SF-539.
The subject of experiment [14] is M14.
Experiment [15] has as its system UACC-62.
In experiment [16] the test system is A498.
The test system of experiment [17] is SNB-75.
In experiment [18] the test system is ACHN.
Experiment [19] has as its system OVCAR-4.

The structures appear in SMILES notation.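 Briefly, cells in 96-well plates were exposed to five compound concentrations for 48 h, and endpoints were estimated by linear interpolation. The concentration for 50% growth inhibition is given as GI50.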 Active and inactive are the calls of the source. No stated cut-off is given here; in the data, active = GI50 up to about 1.1 µM and inactive = higher.

Take `NCCc1ccc2oc3cc(=O)c4ccccc4c-3nc2c1`: the GI50 in [1] was 2.12 µM (inactive); in experiment [2] it was 2.37 µM (inactive); in experiment [3], 0.428 µM (active); in experiment [4], 1.71 µM (inactive); in experiment [5] it was 0.966 µM; in experiment [6] it was 2.59 µM (inactive). Moreover, the GI50 was 5.19 µM (inactive) in experiment [7]; 11.5 µM (inactive) in experiment [8]; 2.62 µM (inactive) in experiment [9]; 2.37 µM (inactive) in experiment [10]; 2.67 µM (inactive) in experiment [11]; 2.16 µM (inactive) in experiment [12]. Further, the GI50 in experiment [13] was 2.6 µM (inactive); in [14], 1.71 µM (inactive); in experiment [15], 4.37 µM (inactive); in experiment [16], 13.3 µM (inactive); in [17] it was 2.22 µM (inactive); in experiment [18], 2.61 µM (inactive). Further, the GI50 in experiment [19] is 4.68 µM (inactive).

For the compound `N#Cc1nc(Nc2ccc(Cl)cc2)sc1N`, the GI50 was 11.6 µM (inactive) in experiment [1]; 6.87 µM (inactive) in experiment [2]; 6.68 µM (inactive) in experiment [3]; 15.1 µM (inactive) in [4]; 7.18 µM in [5]; 3.01 µM (inactive) in experiment [6]. For the same compound, the GI50 in experiment [7] was 19.8 µM (inactive); in experiment [8] it was 7.57 µM (inactive); in experiment [9] it was 10.2 µM (inactive); in experiment [10] it was 10.2 µM (inactive); in [11], 13.8 µM (inactive); in experiment [12] it was 17.8 µM (inactive). Moreover, the GI50 in experiment [13] is 2.78 µM (inactive); in experiment [14], 23.6 µM (inactive); in experiment [15], 10.1 µM (inactive); in experiment [16] it was 10.9 µM (inactive); in [17] it was 28.8 µM (inactive); in [18] it was 3.86 µM (inactive). The GI50 in [19] is 24 µM (inactive).

Take `CN1CC(C(=O)C2C(=O)c3ccccc3C2=O)C(=O)C(=O)C(C(=O)C2C(=O)c3ccccc3C2=O)C1` (configuration not stated): the GI50 in [1] was > 100 µM (inactive); in [2], > 100 µM (inactive); in [3] it was > 100 µM (inactive); in [4], > 100 µM (inactive); in experiment [5], greater than 100 µM; in experiment [6], > 100 µM (inactive). Also, the GI50 in experiment [8] is > 100 µM (inactive); in experiment [9] it was > 100 µM (inactive); in experiment [10] it was > 100 µM (inactive); in [11], > 100 µM (inactive); in experiment [12], > 10 µM (inactive); in [13], > 100 µM (inactive). Moreover, the GI50 in experiment [14] was > 10 µM (inactive); in experiment [15], > 100 µM (inactive); in experiment [16], > 100 µM (inactive); in experiment [17], 32.9 µM (inactive); in experiment [18] it was > 100 µM (inactive).

As for `O=C1NC(=O)C(C(=O)C(=O)Nc2cccc(C(F)(F)F)c2)C(=O)N1`, the GI50 in [1] was > 100 µM (inactive); in experiment [2], > 100 µM (inactive); in experiment [3] it was > 100 µM (inactive); in experiment [4], > 100 µM (inactive); in [5] it was greater than 100 µM; in experiment [6], > 100 µM (inactive). For the same compound, the GI50 in experiment [8] was > 100 µM (inactive); in experiment [9], > 100 µM (inactive); in experiment [10] it was 53 µM (inactive); in experiment [11], > 100 µM (inactive); in [12], > 100 µM (inactive); in experiment [13], > 100 µM (inactive). Besides, the GI50 in [14] was > 100 µM (inactive); in experiment [15], > 100 µM (inactive); in experiment [16], > 100 µM (inactive); in [17], 52.8 µM (inactive); in experiment [18], > 100 µM (inactive); in experiment [19] it was > 100 µM (inactive).

As to `O=C(O/N=C1/CCCC/C1=C\c1ccccc1)c1ccccc1`, the GI50 in experiment [1] is > 100 µM (inactive); in [2] it was > 100 µM (inactive); in experiment [3], > 100 µM (inactive); in experiment [4] it was > 100 µM (inactive); in experiment [5], 84.3 µM; in experiment [6], 27.7 µM (inactive). In addition, the GI50 in experiment [7] was > 100 µM (inactive); in experiment [9], 92.7 µM (inactive); in [10], > 100 µM (inactive); in experiment [11], 45.3 µM (inactive); in experiment [12], > 100 µM (inactive); in [13] it was > 100 µM (inactive). The GI50 in experiment [14] was > 100 µM (inactive); in experiment [15], > 100 µM (inactive); in [16] it was 0.178 µM (active); in [17], > 100 µM (inactive); in [18] it was > 100 µM (inactive).

Take `CCCCCCCCCCCCCCCC(=O)NC1CCc2cc(O)c(O)c(O)c2-c2ccc(SC)c(=O)cc21` (configuration not stated): the GI50 in experiment [1] was 10.4 µM (inactive); in [2], 4.01 µM (inactive); in experiment [3], 5.21 µM (inactive); in experiment [5], 6.03 µM; in experiment [6], 2.37 µM (inactive); in experiment [7] it was 10.6 µM (inactive). For the same compound, the GI50 in [8] was 13 µM (inactive); in experiment [9], 1.29 µM (inactive); in experiment [10], 11.1 µM (inactive); in experiment [11], 6.22 µM (inactive); in experiment [12], 5.28 µM (inactive); in [13], 2.07 µM (inactive). Besides, the GI50 is 8.02 µM (inactive) in [14]; 2.9 µM (inactive) in experiment [15]; 19.3 µM (inactive) in [16]; 2.62 µM (inactive) in experiment [17]; 8.04 µM (inactive) in [18]; 10.3 µM (inactive) in experiment [19].

As to `C/C(=N\NS(=O)(=O)c1ccccc1)c1ccc[n+]([O-])n1`, the GI50 is > 100 µM (inactive) in [2]; greater than 100 µM in experiment [5]; 25.6 µM (inactive) in [6]; 34.1 µM (inactive) in experiment [8]; > 100 µM (inactive) in experiment [9]; 58.7 µM (inactive) in [10]. For the same compound, the GI50 in experiment [11] is > 100 µM (inactive); in experiment [12], 42.5 µM (inactive); in experiment [13] it was > 100 µM (inactive); in experiment [14] it was 30.1 µM (inactive); in [15] it was > 100 µM (inactive); in experiment [16] it was > 100 µM (inactive). The values for the GI50 in [17], in experiment [18] and in experiment [19] were 47.6 µM (inactive), > 100 µM (inactive) and 49.3 µM (inactive), respectively.

Turning to `C(=N\c1ccc(-c2nc3ccccc3s2)cc1)/c1ccco1`, the GI50 is > 100 µM (inactive) in [1]; 43.5 µM (inactive) in experiment [2]; 87.3 µM (inactive) in experiment [3]; 60.3 µM (inactive) in experiment [4]; 51.2 µM in [5]; 44.5 µM (inactive) in [6]. Also, the GI50 in [7] was 56.4 µM (inactive); in experiment [8], 49.1 µM (inactive); in [9] it was 47.6 µM (inactive); in experiment [10], 43.8 µM (inactive); in [11] it was 38 µM (inactive); in experiment [12], 43.6 µM (inactive). The GI50 in experiment [13] was > 100 µM (inactive); in experiment [14] it was 93.5 µM (inactive); in experiment [15] it was 54.2 µM (inactive); in experiment [16], 27 µM (inactive); in experiment [17], 85.5 µM (inactive); in [18], 44.8 µM (inactive). The GI50 in experiment [19] is 59.6 µM (inactive).

As to `Nc1nc(=O)c(/N=N/c2ccccc2)c(N)[nH]1`, the GI50 was 15.3 µM (inactive) in experiment [1]; 38.4 µM (inactive) in [2]; 65 µM (inactive) in [3]; 39.2 µM (inactive) in [4]; 30.5 µM in [5]; 47.4 µM (inactive) in experiment [6]. Also, the GI50 is 76 µM (inactive) in [7]; 66.7 µM (inactive) in [8]; 14.4 µM (inactive) in experiment [9]; 56.9 µM (inactive) in experiment [10]; 56.2 µM (inactive) in experiment [11]; 71.8 µM (inactive) in [12]. Also, the GI50 is 26.4 µM (inactive) in experiment [13]; 28 µM (inactive) in [14]; 18.6 µM (inactive) in experiment [15]; 45.2 µM (inactive) in experiment [16]; 3.78 µM (inactive) in experiment [17]; 27.4 µM (inactive) in experiment [18]. Further, in [19], the GI50 was > 100 µM (inactive).

On to `CCOC(=O)/C=C(/CN1C(=O)c2ccccc2C1=O)c1ccccc1`, for which the GI50 is > 100 µM (inactive) in experiment [1]; > 100 µM (inactive) in experiment [2]; > 100 µM (inactive) in experiment [3]; > 100 µM (inactive) in [4]; greater than 100 µM in experiment [5]; > 100 µM (inactive) in [6]. Further, the GI50 in experiment [7], in experiment [8], in experiment [9], in experiment [10], in [11] and in experiment [12] was > 100 µM (inactive) in each case. Besides, the GI50 in experiment [13], in experiment [14], in [15], in [16], in experiment [17] and in experiment [18] was > 100 µM (inactive) in each case. The GI50 in [19] was > 100 µM (inactive).

As for `C=CCc1cc(OC)c(O)c(C(=O)/C=C/c2ccc(OC)c(OC)c2)c1`, the GI50 in [1] was 18.6 µM (inactive); in [2], 21.8 µM (inactive); in [3], 15.3 µM (inactive); in experiment [4], 13.3 µM (inactive); in [6], 1.86 µM (inactive); in experiment [8], 22.1 µM (inactive). The GI50 in experiment [9] was 17.4 µM (inactive); in experiment [10], 19.3 µM (inactive); in experiment [11] it was 19.5 µM (inactive); in experiment [12], 19.3 µM (inactive); in experiment [13], 19.1 µM (inactive); in experiment [14], 17 µM (inactive). Besides, the GI50 in experiment [15] is 23.8 µM (inactive); in experiment [16], 17.9 µM (inactive); in experiment [17], 22.5 µM (inactive); in experiment [18], 19.9 µM (inactive); in experiment [19], 16.2 µM (inactive).

Source of the values: ChEMBL document CHEMBL1201862, “PubChem BioAssay data set” (2004).
